Measured values reported in patent US20260130933A1, “PHARMACEUTICAL COMPOSITION FOR PREVENTION OR TREATMENT OF NEPHROPATHY AND/OR DIABETES MELLITUS, COMPRISING ENAVOGLIFLOZIN” (DAEWOONG PHARMACEUTICAL CO., LTD., priority 2022, published 2026).

Assay: Example 3: phase 3 trial, enavogliflozin 0.3 mg vs dapagliflozin 10 mg once a day for 24 weeks added to metformin and gemigliptin in patients with type 2 diabetes (same endpoints, rescue drug)
Assay type: in vivo, human
Conditions: week 12
Procedure: 1) when Metformin (≥1,000 mg/Day) was Administered at a Constant Dose for at Least 8 Weeks Prior to Pre-Visit (Pre-Screening) • Metformin (≥1,000 mg/day) and gemigliptin (50 mg/day) were co-administered during the 8-week stabilization period. […] 4) when Metformin (≥1,000 mg/Day) and Gemigliptin (50 mg/Day) were Co-Administered at Constant Doses for at Least 8 Weeks Prior to Pre-Visit (Prescreening) • Without a separate stabilization period, Pre-visit (pre-screening) was Visit 1 (screening).
Subjects who met the inclusion/exclusion criteria continued to receive metformin and gemigliptin while receiving a placebo of the clinical trial drug in a single-blind (subject-blinded) state for a 2-week run-in period.
Here, the randomized subjects were stratified according to the administration therapy (co-administration with two or less agents (one or two agents) or three or more agents) of a conventional hypoglycemic agent (before washout of another hypoglycemic agent) within 24 weeks prior to obtaining written informed consent and by an HbA1c value (<8% or ≥8%) at Visit 1 (screening) measured in the central laboratory.
The randomized subjects were administered two tablets of the clinical trial drug corresponding to each administration group once a day, and then visited the institution at weeks 6, 12, 18, and 24 during the 24-week administration period to conduct efficacy and safety assessments. In addition, during the clinical trial period, they were instructed to exercise regularly and control their diet without changing their daily life patterns.
• 1) Change in HbA1c at week 24 after administration of clinical trial drug compared to Visit 2 (randomization)
• 1) Change in HbA1c at each time point of weeks 6, 12, and 18 after administration of clinical trial drug compared to Visit 2 (randomization) • 2) Change in FPG at each time point of weeks 6, 12, 18, and 24 after administration of clinical trial drug compared to Visit 2 (randomization) • 3) Proportion of subjects achieving HbA1c<7% at each time point of weeks 6, 12, 18, and 24 after administration of clinical trial drug • 4) Proportion of subjects achieving HbA1c<6.5% at each time point of weeks 6, 12, 18, and 24 after administration of clinical trial drug • 5) Proportion of subjects achieving therapeutic response (HbA1c change (HbA1c at Visit 2—HbA1c at each evaluation time point)>0.5% or HbA1c<7% at each evaluation time point compared to Visit 2 (randomization)) at each time point of weeks 6, 12, 18, and 24 after administration of clinical trial drug • 6) Proportion of subjects achieving therapeutic response (HbA1c change (HbA1c at Visit 2—HbA1c at each evaluation time point)>0.7% or HbA1c<7% at each evaluation time point compared to Visit 2 (randomization)) at each time point of weeks 6, 12, 18, and 24 after administration of clinical trial drug • 7) Proportion of subjects achieving therapeutic response (HbA1c change (HbA1c at Visit 2—HbA1c at each evaluation time point)>1% or HbA1c<7% at each evaluation time point compared to Visit 2 (randomization)) at each time point of weeks 6, 12, 18, and 24 after administration of clinical trial drug

[1] = per-protocol set, enavogliflozin 0.3 mg, dapagliflozin 10 mg

## CCOc1ccc(Cc2cc([C@@H]3O[C@H](CO)[C@@H](O)[C@H](O)[C@H]3O)ccc2Cl)cc1 [Dapagliflozin, reference compound]
Modified per-protocol set 2, enavogliflozin 0.3 mg, dapagliflozin 10 mg
  Systolic blood pressure, Median: 120.00 mmHg
per-protocol set
  Adiponectin, Mean: 6.97 µg/mL
  Adiponectin, Median: 6.27 µg/mL
  Change from baseline in HOMA-IR, ANCOVA LS mean: −1.05
  Change from baseline in HOMA-IR, Mean: −1.06
  Change from baseline in HOMA-IR, Median: −0.76
  Change from baseline in HOMA-β, ANCOVA LS mean: 5.23
  Change from baseline in HOMA-β, Mean: 4.70
  Change from baseline in HOMA-β, Median: 3.50
  Change from baseline in UACR, ANCOVA LS mean: -11.76 g/kg
  Change from baseline in UACR, Mean: -7.42 g/kg
  Change from baseline in UACR, Median: 0.20 g/kg
  Change from baseline in UGCR, ANCOVA LS mean: 44.84 mg/mg
  Change from baseline in UGCR, Mean: 43.19 mg/mg
  Change from baseline in UGCR, Median: 41.69 mg/mg
  Change from baseline in adiponectin, ANCOVA LS mean: 0.70 µg/mL
  Change from baseline in adiponectin, Mean: 0.63 µg/mL
  Change from baseline in adiponectin, Median: 0.43 µg/mL
  Change from baseline in leptin, ANCOVA LS mean: -1.69 ng/mL
  Change from baseline in leptin, Mean: -1.82 ng/mL
  Change from baseline in leptin, Median: -0.96 ng/mL
  HOMA-IR (insulin resistance), Mean: 1.80
  HOMA-IR (insulin resistance), Median: 1.55
  HOMA-β (beta-cell function), Mean: 45.17
  HOMA-β (beta-cell function), Median: 38.20
  Leptin, Mean: 9.03 ng/mL
  Leptin, Median: 7.69 ng/mL
  UACR, Mean: 27.28 g/kg
  UACR, Median: 11.80 g/kg
  UGCR, Mean: 44.72 mg/mg
  UGCR, Median: 41.80 mg/mg
[1]
  Body weight, Mean: 64.64 kg
  Change from baseline in FPG, ANCOVA LS mean: -24.42 mg/dL
  Change from baseline in FPG, Mean: -25.28 mg/dL
  Change from baseline in FPG, Median: -20.00 mg/dL
  Change from baseline in HbA1c, ANCOVA LS mean: −0.83 % p
  Change from baseline in HbA1c, Mean: −0.87 % p
  Change from baseline in HbA1c, Median: −0.85 % p
  Change from baseline in body weight, ANCOVA LS mean: -2.71 kg
  Change from baseline in body weight, Mean: -2.58 kg
  Change from baseline in body weight, Median: -2.50 kg
  Change from baseline in fasting C-peptide, ANCOVA LS mean: -0.07 ng/mL
  Change from baseline in fasting C-peptide, Mean: -0.06 ng/mL
  Change from baseline in fasting C-peptide, Median: -0.03 ng/mL
  FPG, Mean: 115.24 mg/dL
  FPG, Median: 112.00 mg/dL
  Fasting C-peptide, Mean: 0.63 ng/mL
  Fasting C-peptide, Median: 0.60 ng/mL
  HbA1c, Mean: 6.96%
  HbA1c, Median: 6.84%
  Subjects achieving HbA1c target of <6.5%, (%): 17.07%
